Measured values taken from US8987250B2 (Gilead Sciences, Inc., priority 2012, dated 2015).

System: HIV-IIIb
Assay: Test A: Antiviral Assay in MT4 Cells
Format: cell-based
Conditions: Human immunodeficiency virus 1, IIIB, MT4, 120 h, Table 2; MT-4 cells infected with HIV-IIIb, 5 days of incubation, CellTiter-Glo; read-out: EC50
Method in brief: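 Read-out: CellTiter-Glo chemiluminescence after 5-day incubation at 37 °C. Compounds tested as 3-fold serial dilutions (10 concentrations, quadruplicate) in RPMI 1640 with 10% FBS, on MT-4 cells pre-infected at 37 °C with HIV-IIIb at 0.004 m.o.i.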

| Compound | EC50 [nM] |
| --- | --- |
| Cc1cc2nc(-c3ccc4c(N)nn(C)c4c3)sc2c(-c2ccc(Cl)cc2)c1[C@H](OC(C)(C)C)C(=O)O [Compound 266, (S)-2-(2-(3-amino-1-methyl-1H-indazol-6-yl)-7-(4-chlorophenyl)-5-methylbenzo[d]thiazol-6-yl)-2-tert-butoxyacetic acid] | 10 |
| Cc1cc2nc(-c3ccc4c(C5CCN(C)CC5)nn(C)c4c3)sc2c(-c2ccc(Cl)cc2)c1[C@H](OC(C)(C)C)C(=O)O [Compound 267, (S)-2-tert-butoxy-2-(7-(4-chlorophenyl)-5-methyl-2-(1-methyl-3-(1-methylpiperidin-4-yl)-1H-indazol-6-yl)benzo[d]thiazol-6-yl)acetic acid] | 11 |
| Cc1cc2nc(-c3ccc4c(c3)c(C3CCN(C)CC3)nn4C)sc2c(-c2ccc(Cl)cc2)c1[C@H](OC(C)(C)C)C(=O)O [Compound 268, (S)-2-tert-butoxy-2-(7-(4-chlorophenyl)-5-methyl-2-(1-methyl-3-(1-methylpiperidin-4-yl)-1H-indazol-5-yl)benzo[d]thiazol-6-yl)acetic acid] | 12 |
| Cc1cc2nc(-c3ccc4c(c3)c(N3CCN(C(C)C)CC3)nn4C)sc2c(-c2ccc(Cl)cc2)c1[C@H](OC(C)(C)C)C(=O)O [Compound 269, (S)-2-tert-butoxy-2-(7-(4-chlorophenyl)-2-(3-(4-isopropylpiperazin-1-yl)-1-methyl-1H-indazol-5-yl)-5-methylbenzo[d]thiazol-6-yl)acetic acid] | 12 |
| Cc1cc(C)n(-c2cccc(-c3nc4cc(C)c([C@H](OC(C)(C)C)C(=O)O)c(-c5ccc(Cl)cc5)c4s3)c2)n1 [Compound 272, (S)-2-tert-butoxy-2-(7-(4-chlorophenyl)-2-(3-(3,5-dimethyl-1H-pyrazol-1-yl)phenyl)-5-methylbenzo[d]thiazol-6-yl)acetic acid] | 78 |
| Cc1cc2nc(-n3ccnc(-c4ccc5c(cnn5C)c4)c3=O)sc2c(-c2ccc(Cl)cc2)c1[C@H](OC(C)(C)C)C(=O)O [Compound 273, (S)-2-tert-butoxy-2-(7-(4-chlorophenyl)-5-methyl-2-(3-(1-methyl-1H-indazol-5-yl)-2-oxopyrazin-1(2H)-yl)benzo[d]thiazol-6-yl)acetic acid] | 53 |
| Cc1cc2nc(N3CCN(C)C(c4ccc5c(cnn5C)c4)C3=O)sc2c(-c2ccc(Cl)cc2)c1[C@H](OC(C)(C)C)C(=O)O (stereo partly drawn) [Compound 274, (2S)-2-tert-butoxy-2-(7-(4-chlorophenyl)-5-methyl-2-(4-methyl-3-(1-methyl-1H-indazol-5-yl)-2-oxopiperazin-1-yl)benzo[d]thiazol-6-yl)acetic acid] | 31 |
| Cc1cc2nc(N3CCNC(c4ccc5c(cnn5C)c4)C3=O)sc2c(-c2ccc(Cl)cc2)c1[C@H](OC(C)(C)C)C(=O)O (stereo partly drawn) [Compound 275, (2S)-2-tert-butoxy-2-(7-(4-chlorophenyl)-5-methyl-2-(3-(1-methyl-1H-indazol-5-yl)-2-oxopiperazin-1-yl)benzo[d]thiazol-6-yl)acetic acid] | 21 |
| Cc1cc2nc(N3CCN(C(=O)OC(C)(C)C)C(c4ccc5c(cnn5C)c4)C3)sc2c(-c2ccc(Cl)cc2)c1[C@H](OC(C)(C)C)C(=O)O (stereo partly drawn) [Compound 276, (2S)-2-tert-butoxy-2-(2-(4-(tert-butoxycarbonyl)-3-(1-methyl-1H-indazol-5-yl)piperazin-1-yl)-7-(4-chlorophenyl)-5-methylbenzo[d]thiazol-6-yl)acetic acid] | 37 |
| Cc1cc2nc(N3CCNC(c4ccc5c(cnn5C)c4)C3)sc2c(-c2ccc(Cl)cc2)c1[C@H](OC(C)(C)C)C(=O)O (stereo partly drawn) [Compound 277, (2S)-2-tert-butoxy-2-(7-(4-chlorophenyl)-5-methyl-2-(3-(1-methyl-1H-indazol-5-yl)piperazin-1-yl)benzo[d]thiazol-6-yl)acetic acid] | 26 |
| Cc1cc2nc(N3CCN(C(C)C)C(c4ccc5c(cnn5C)c4)C3)sc2c(-c2ccc(Cl)cc2)c1[C@H](OC(C)(C)C)C(=O)O (stereo partly drawn) [Compound 279, (2S)-2-tert-butoxy-2-(7-(4-chlorophenyl)-2-(4-isopropyl-3-(1-methyl-1H-indazol-5-yl)piperazin-1-yl)-5-methylbenzo[d]thiazol-6-yl)acetic acid] | 16 |
| Cc1cc2nc(-c3cccc(-c4cnc(=O)n(C)c4)c3)sc2c(-c2ccc(Cl)cc2)c1[C@H](OC(C)(C)C)C(=O)O [Compound 280, (S)-2-tert-butoxy-2-(7-(4-chlorophenyl)-5-methyl-2-(3-(1-methyl-2-oxo-1,2-dihydropyrimidin-5-yl)phenyl)benzo[d]thiazol-6-yl)acetic acid] | 248 |
| Cc1cc2nc(-c3nccc(N4CCN(C)CC4)n3)sc2c(-c2ccc(Cl)cc2)c1[C@H](OC(C)(C)C)C(=O)O [Compound 281, (S)-2-tert-butoxy-2-(7-(4-chlorophenyl)-5-methyl-2-(4-(4-methylpiperazin-1-yl)pyrimidin-2-yl)benzo[d]thiazol-6-yl)acetic acid] | 31 |
| Cc1cc2nc(-c3cncc(N4CCN(C)CC4)n3)sc2c(-c2ccc(Cl)cc2)c1[C@H](OC(C)(C)C)C(=O)O [Compound 282, (S)-2-tert-butoxy-2-(7-(4-chlorophenyl)-5-methyl-2-(6-(4-methylpiperazin-1-yl)pyrazin-2-yl)benzo[d]thiazol-6-yl)acetic acid] | 3 |
| Cc1cc2nc(-c3ccc4ncn(C)c4c3)sc2c(-c2ccc(Cl)cc2)c1[C@H](OC(C)(C)C)C(=O)O [Compound 283, (S)-2-tert-butoxy-2-(7-(4-chlorophenyl)-5-methyl-2-(1-methyl-1H-benzo[d]imidazol-6-yl)benzo[d]thiazol-6-yl)acetic acid] | 51 |
| Cc1cc2nc(-c3ccc4c(c3)n(C)c(=O)n4C)sc2c(-c2ccc(Cl)cc2)c1[C@H](OC(C)(C)C)C(=O)O [Compound 286, (S)-2-(tert-butoxy)-2-(7-(4-chlorophenyl)-2-(1,3-dimethyl-2-oxo-2,3-dihydro-1H-benzo[d]imidazol-5-yl)-5-methylbenzo[d]thiazol-6-yl)acetic acid] | 10 |
| Cc1cc2nc(-c3ccc4nc[nH]c4c3)sc2c(-c2ccc(Cl)cc2)c1[C@H](OC(C)(C)C)C(=O)O [Compound 287, (S)-2-(2-(1H-benzo[d]imidazol-6-yl)-7-(4-chlorophenyl)-5-methylbenzo[d]thiazol-6-yl)-2-(tert-butoxy)acetic acid] | 113 |
| COc1cnc(-c2ccc3c(cnn3C)c2)cc1-c1nc2cc(C)c([C@H](OC(C)(C)C)C(=O)O)c(-c3ccc(Cl)cc3)c2s1 [Compound 288, (S)-2-(tert-butoxy)-2-(7-(4-chlorophenyl)-2-(5-methoxy-2-(1-methyl-1H-indazol-5-yl)pyridin-4-yl)-5-methylbenzo[d]thiazol-6-yl)acetic acid] | 65 |
| Cc1cnc(-c2ccc3c(cnn3C)c2)cc1-c1nc2cc(C)c([C@H](OC(C)(C)C)C(=O)O)c(-c3ccc(Cl)cc3)c2s1 [Compound 289, (S)-2-(tert-butoxy)-2-(7-(4-chlorophenyl)-5-methyl-2-(5-methyl-2-(1-methyl-1H-indazol-5-yl)pyridin-4-yl)benzo[d]thiazol-6-yl)acetic acid] | 25 |
| Cc1cc2nc(-c3cc(-c4ccc5c(cnn5C)c4)ncc3C(F)F)sc2c(-c2ccc(Cl)cc2)c1[C@H](OC(C)(C)C)C(=O)O [Compound 290, (S)-2-(tert-butoxy)-2-(7-(4-chlorophenyl)-2-(5-(difluoromethyl)-2-(1-methyl-1H-indazol-5-yl)pyridin-4-yl)-5-methylbenzo[d]thiazol-6-yl)acetic acid] | 87 |
| Cc1cc2nc(-c3cc(-c4ccc5c(cnn5C)c4)ncc3F)sc2c(-c2ccc(Cl)cc2)c1[C@H](OC(C)(C)C)C(=O)O [Compound 291, (S)-2-(tert-butoxy)-2-(7-(4-chlorophenyl)-2-(5-fluoro-2-(1-methyl-1H-indazol-5-yl)pyridin-4-yl)-5-methylbenzo[d]thiazol-6-yl)acetic acid] | 76 |
| Cc1cc2nc(-c3ccc4nc(C)n(C)c4c3)sc2c(-c2ccc(Cl)cc2)c1[C@H](OC(C)(C)C)C(=O)O [Compound 292, (S)-2-(tert-butoxy)-2-(7-(4-chlorophenyl)-2-(1,2-dimethyl-1H-benzo[d]imidazol-6-yl)-5-methylbenzo[d]thiazol-6-yl)acetic acid] | 23 |
| Cc1nc2c([nH]1)CCN(c1nc3cc(C)c([C@H](OC(C)(C)C)C(=O)O)c(-c4ccc(Cl)cc4)c3s1)C2 [Compound 293, (S)-2-tert-butoxy-2-(7-(4-chlorophenyl)-5-methyl-2-(2-methyl-6,7-dihydro-1H-imidazo[4,5-c]pyridin-5(4H)-yl)benzo[d]thiazol-6-yl)acetic acid] | 215 |
| Cc1cc2nc(-c3ccc4c(c3)nc(C)n4C3CCN(C)CC3)sc2c(-c2ccc(Cl)cc2)c1[C@H](OC(C)(C)C)C(=O)O [Compound 294, (S)-2-(tert-butoxy)-2-(7-(4-chlorophenyl)-5-methyl-2-(2-methyl-1-(1-methylpiperidin-4-yl)-1H-benzo[d]imidazol-5-yl)benzo[d]thiazol-6-yl)acetic acid] | 36 |
| Cc1cc2nc(-c3ccc4c(c3)ncn4C3CCN(C)CC3)sc2c(-c2ccc(Cl)cc2)c1[C@H](OC(C)(C)C)C(=O)O [Compound 295, (S)-2-(tert-butoxy)-2-(7-(4-chlorophenyl)-5-methyl-2-(1-(1-methylpiperidin-4-yl)-1H-benzo[d]imidazol-5-yl)benzo[d]thiazol-6-yl)acetic acid] | 34 |
| Cc1cc2nc(-c3ccc4nc(C)n([C@@H]5CCN(C)C5)c4c3)sc2c(-c2ccc(Cl)cc2)c1[C@H](OC(C)(C)C)C(=O)O [Compound 296, (S)-2-tert-butoxy-2-(7-(4-chlorophenyl)-5-methyl-2-(2-methyl-1-((R)-1-methylpyrrolidin-3-yl)-1H-benzo[d]imidazol-6-yl)benzo[d]thiazol-6-yl)acetic acid] | 13 |
